Assay results as given in article PMC10660337, “Mutate and Conjugate: A Method to Enable Rapid In-Cell Target Validation” (ACS Chemical Biology, 2023).
Where “and” joins values, the source holds several entries; their conditions need not be identical. Identical values can stand only once. Blank lines part the entries; values can stand above or below the molecule they belong to.

Experiments:
[1] = target: T1, BRD4(1)^L94C (Homo sapiens, UniProt O60885, L94C); test: Protein LCMS labeling assay 2 (diverse reactive fragment screen); format: binding; conditions: 1 μM protein, 4 °C, 24 h
T1 construct: Characterization of His6-BRD4(1)L94C; made in house; host or cells: E. coli BL21 (DE3)
Description: To investigate whether screening of an unbiased set of covalent fragments could identify ligands for BRD4(1)^L94C, we evaluated 250 previously published cysteine-reactive compounds, comprising 138 acrylamide- and 112 chloroacetamide-functionalized reactive fragments with molecular weights ranging from 152 to 300 Da.[44] Due to the higher throughput of this screening assay, the conditions varied compared to “labeling assay 1”. In this case, 1 μM BRD4(1)^L94C was incubated with either a chloroacetamide fragment (50 μM) or an acrylamide fragment (200 μM) at 4 °C for 24 h (referred to as “labeling assay 2”). Samples were then analyzed using protein LCMS, where a positive hit was classified as a single protein labeling event with a mass shift corresponding to the mass of the fragment of ±2 Da and a labeled peak of >20% intensity. Of the 250 diverse reactive compounds screened against BRD4(1)^L94C, only one chloroacetamide and one acrylamide fragment were classified as hits (Figures 5A and S10). […]
Experiments were performed in a protein LCMS assay buffer, with 10 µM protein, and 50 µM of the desired compound with a final DMSO concentration of 0.5% (Table S16). […] Data was analysed and processed using MassLynx. […] Covalent labeling was calculated using intensities of the unlabeled and labeled protein (Equation 1). […]

[2] = target: T1, BRD4(1)^L94C; test: Protein LCMS labeling assay 1; format: binding; conditions: 50 μM compound, 10 µM protein, 37 °C, mean of three ± s.e.m., ND = not detectable
Description: (§1) The resulting library of 22 fragments was screened for BRD4(1)^L94C binding at a concentration of 50 μM using a protein LCMS assay (referred to as “labeling assay 1”). […] To assess the selectivity of the fragments for the labeling of C94, hits were also screened against BRD4(1)^WT under the same conditions. […] The acrylamide-based fragment, 12, labeled 98% of BRD4(1)^L94C after 4 h. While 95% of the protein was labeled once, 3% of the protein was labeled twice (Figure 5D). […] Fragment 14, designed by appending a β-dimethylaminomethyl acrylamide to the structure of 12, led to 74% of singly labeled BRD4(1)^L94C after 4 h with no labeling of BRD4(1)^WT observed (Table 1 and Figure 5E). […] However, only 9.9% of labeled BRD4(1)^L94C was observed, substantially lower than the 56% labeling observed for the corresponding 3-methyl regioisomer 10 (Table 1). […]
(§2) Assays were performed in 1.5 mL Eppendorf tubes at 37 °C and gently shaken, unless otherwise stated.
(§3) Experiments were performed in a protein LCMS assay buffer, with 10 µM protein, and 50 µM of the desired compound with a final DMSO concentration of 0.5% (Table S16). Time points were taken at 0, 1 and 4 h, unless otherwise stated, where a 20 µL sample of the reaction mix was taken, diluted with 100 µL Milli-Q water, and flash frozen. Samples were thawed immediately prior to LCMS analysis on a Waters Xevo G2-S system (Waters) fitted with a ProSwift™ RP-2H PSDVB Reversed Phase HPLC Column (Thermofisher). Data was analysed and processed using MassLynx. The total ion chromatograms (TIC) were extracted (region containing protein) and the summed scans were deconvoluted (using MaxEnt). Covalent labeling was calculated using intensities of the unlabeled and labeled protein (Equation 1). Figures were made using GraphPad Prism 7.0.
(§4) Table S16. Buffer composition for protein LCMS.
(§5) Buffer Reagent Composition Amount per 1 L
(§6) Protein LCMS Assay Buffer HEPES 25 mM 6.0 g
(§7) Protein Labelling = Intensity of Labelled Peak × 100

[3] = target: T1, BRD4(1)^L94C; test: Fluorescent labeling of purified protein (CuAAC with TAMRA-PEG3-azide, in-gel fluorescence); format: binding; conditions: 50 μM probe, 10 μM protein, 4 h, 37 °C, then CuAAC 1 h
Description: (§8) When 28, 29, 30, and 42 were incubated with either purified BRD4(1)^L94C or BRD4(1)^WT and subjected to a copper(I)-catalyzed alkyne–azide click reaction (CuAAC) reaction with the fluorescent TAMRA-PEG3-azide dye, all clickable probes labeled the mutant protein and could be visualized using fluorescence imaging of a gel (Figure 6).
Figure 6 Clickable probes 28, 29, 30, and 42 covalently label BRD4(1)^L94C and undergo a subsequent CuAAC reaction with TAMRA-PEG3 azide to fluorescently label the protein, as shown by in-gel fluorescence imaging. Compounds 28, 29, 30, 41, and 42 (50 μM) were incubated with purified BRD4(1)^L94C or BRD4(1)^WT (10 μM) for 4 h at 37 °C, followed by CuAAC reaction with TAMRA-PEG3 azide for 1 h and separation of components by SDS-PAGE. For all compounds other than 30, only labeling of BRD4(1)^L94C was observed. […]
Fluorescent labeling of purified proteins
Assays were performed in 1.5 mL Eppendorf tubes at 37 °C, and gently shaken, unless otherwise stated.
The desired click probe (50 µM) was incubated with protein (10 µM) in protein LCMS buffer for 4 h, after which TAMRA-PEG3-Azide (200 µM), TCEP·HCl (1 mM), TBTA (100 µM), and CuSO4 (1 mM) were added and incubated for a further 1 h at room temperature in the dark. A 25 µL sample of the […]
reaction mix was taken and 8 µL of Lamelli buffer added, and the samples denatured by heating at 95 °C for 10 min. Samples were separated by gel electrophoresis on NuPAGE™ 4–12%, Bis-Tris precast polyacrylamide gels (Thermofisher). Following electrophoresis, gels were stained for 15 min with InstantBlueTM Coomasie® stain (Abcam), destained, and imaged using Bio-rad molecular imager.
Bio-rad Image Lab 6.1 was used to process the data. […]
InstantBlueTM Coomasie® stain (Abcam), destained, and imaged using Bio-rad molecular imager. […]
MEM media. Cells were then harvested and lysed using the previously described protocol above. […]

[4] = target: T2, BRD4(1)^WT (Homo sapiens, UniProt O60885); test: as above; format: binding; conditions: 50 μM probe, 10 μM protein, 4 h, 37 °C, then CuAAC 1 h
T2 construct: Characterization of His6-BRD4(1)WT; made in house; host or cells: E. coli BL21 (DE3)
Description: as §8
Figure 6 Clickable probes 28, 29, 30, and 42 covalently label BRD4(1)^L94C and undergo a subsequent CuAAC reaction with TAMRA-PEG3 azide to fluorescently label the protein, as shown by in-gel fluorescence imaging. Compounds 28, 29, 30, 41, and 42 (50 μM) were incubated with purified BRD4(1)^L94C or BRD4(1)^WT (10 μM) for 4 h at 37 °C, followed by CuAAC reaction with TAMRA-PEG3 azide for 1 h and separation of components by SDS-PAGE. For all compounds other than 30, only labeling of BRD4(1)^L94C was observed.
(§9) 50 mM DMSO stock solutions of the compounds were serially diluted, and dispensed into wells (5 μL).
The protein-peptide mixes (7 μL) for each combination were prepared following the specified final assay concentration (Table S19), and dispensed into wells. […]
Assays were performed in 1.5 mL Eppendorf tubes at room temperature, in the dark, and gently shaken, unless otherwise stated. […] Data was analysed and processed using MassLynx. […]
Gels were imaged for fluorescence using Bio-rad molecular imager and then stained for 15 min with […]

[5] = target: T2, BRD4(1)^WT; test: AlphaScreen H4_1–20(KAc)4 peptide displacement; format: binding; conditions: 4 h incubation at RT; mean of three ± s.e.m.
Description: (§10) Dose response AlphaScreen™
(§11) The peptide (Table S17) was supplied at >95% purity by GenScript and was stored as 1 mM stocks in […]
(§12) Table S17. Amino acid sequences of peptides used in AlphaScreen™.
(§13) Peptide Amino Acid Sequence […]
(§14) The assay buffer (Table S18, pH 7.6) was filtered through a 0.22 μm filter before use. The buffer is stored at 4 °C as a 5× solution without bovine serum albumin (BSA), which was added on the day of use. The compounds, proteins, and peptides were dispensed into a ProxiPlate-384 Plus (Perkin Elmer) using a Thermo-Fisher electronic multi-channel pipette. For the incubation steps, the plates were sealed, shaken for 10 seconds at 600 rpm on a plate oscillator, and incubated at room temperature in darkness for 30 min or 3.5 h. Ni2+ chelate acceptor and streptavidin donor beads were prepared as a mixture in a 1:300 dilution (0.007 mg/mL final assay concentration, added to the plates and incubated for a further 30 min at room temperature. Plates were read using a SynergyTM 2 MultiMode Microplate Reader using the inbuilt AlphaScreen™ 384 ProxiPlate function: excitation 680 nm, 0.18 sec; emission […]
(§15) Table S18. Composition of assay buffer used in AlphaScreen™ experiments, adjusted to pH 7.6 using an aqueous NaOH […]
(§16) Reagent Composition Mass (mg) for 50 mL
as §9
(§17) The protein-peptide mixes (7 μL) for each combination were prepared following the specified final assay concentration (Table S19), and dispensed into wells. Assay beads (8 μL) were added to attain a final assay volume of 20 μL. Dose response curves were obtained for each compound in triplicate, with serial 1:2 dilutions. Data was processed by fitting a four-parameter equation (Equation 2) to calculate IC50 values using Prism software.
(§18) Table S19. Final assay concentrations of each peptide-protein combination.
(§19) Protein Peptide Protein FAC (nM) Peptide FAC (nM)
(§20) Response = Bottom + Top − Bottom

[6] = target: T2, BRD4(1)^WT; test: Protein LCMS labeling assay 1; format: binding; conditions: 50 μM compound, 10 µM protein, 37 °C, 4 h; mean of three ± s.e.m.; ND = not detectable
Description: Before introducing a Cys mutant into the first bromodomain of BRD4 [BRD4(1)], we wanted to rule out the possibility that the native Cys residues C125 and C136 (Figures 2A and S1), would react with electrophilic fragments. To test this, we incubated two KAc-mimicking methylisoxazole-based reactive fragments (1 and 2, Figure 2C) with purified BRD4(1)^WT.
as §1, §2, §3, §4, §5, §6, §7

[7] = target: T1, BRD4(1)^L94C; test: AlphaScreen H4_1–20(KAc)4 peptide displacement; format: binding; conditions: mean of three ± s.e.m.
Description: Under these conditions, all three fragments displaced the peptide from BRD4(1)^L94C, which is consistent with the fragments binding to BRD4(1)^L94C in the expected location (Table 2). […] The longer the mutant protein and electrophile are incubated together, the more time there is for a covalent interaction to occur. […]
as §10, §11, §12, §13, §14, §15, §16, §9, §17, §18, §19, §20

[8] = system: BRD4(1); parameters: method as in PMID 36378954; conditions: cited from earlier work

Labeling of BRD4(1)^L94C, labeling assay 2 ([1]; chloroacetamide fragment 50 μM): 27%
Structure (SMILES): O=C(CCl)Nc1nc(-c2cccs2)cs1 [Compound 26]

Labeled Protein (%) L94C 4 h [2]: 2% and 2.0 ± 0.0% | Labeling of purified BRD4(1)^L94C, in-gel fluorescence [3]: no labeling | Labeling of purified BRD4(1)^WT, in-gel fluorescence [4]: no labeling
Structure (SMILES): C#CCN(C)C/C=C/C(=O)Nc1ccc(N2CCCC2=O)c(OC)c1 [Compound 41]

IC50 [5]: > 100 µM | Labeled Protein (%) L94C 1 h ([2]; 1 h): 17 ± 1.0% | Labeled Protein (%) L94C 4 h [2]: 61% and 61 ± 2.5% | Labeled Protein (%) WT 4 h [6]: no covalent binding | Labeling of BRD4(1)^L94C, labeling assay 2 ([1]; acrylamide fragment 200 μM): 89% | IC50 ([7]; IC50 (μM) L94C 1 h, 1 h incubation at RT): 15.5 ± 3.2 µM | IC50 ([7]; IC50 (μM) L94C 4 h, 4 h incubation at RT): 2.48 µM and 2.5 µM
Structure (SMILES): C=CC(=O)Nc1ccc(N2CCCC2=O)c(OC)c1 [Compound 27]

Structure (SMILES): Cc1noc(C)c1-c1ccccc1 [4-phenyl-3,5-dimethylisoxazole]
IC50 [8]: 50 µM
